Measurements: patent publication US8846704B2, “Thiopyrimidine-based compounds and uses thereof” (YM Biosciences Austraila Pty Ltd, priority 2007, dated 2014)

Experiments:
human JAK3 = molecular target: T1, human JAK3 (Homo sapiens, UniProt P52333); experiment: Alphascreen tyrosine kinase enzyme assay, JAK3 kinase domain; format: biochemical; conditions: read-out: JAK3 IC50_nM
T1 construct: The kinase domain of human JAK3 was amplified; GST (N); made in house; host or cells: Sf9 insect cells (baculovirus)
T1 sequence (P52333 822-1111 limits assumed): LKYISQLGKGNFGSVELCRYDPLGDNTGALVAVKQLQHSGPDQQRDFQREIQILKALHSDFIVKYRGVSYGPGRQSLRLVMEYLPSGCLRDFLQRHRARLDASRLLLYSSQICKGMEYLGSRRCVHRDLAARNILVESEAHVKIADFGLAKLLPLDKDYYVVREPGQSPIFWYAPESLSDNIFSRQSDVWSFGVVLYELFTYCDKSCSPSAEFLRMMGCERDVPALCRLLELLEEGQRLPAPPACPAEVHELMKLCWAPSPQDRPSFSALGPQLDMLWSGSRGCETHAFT
Experimental: For screening purposes, compounds (in 100% DMSO) were warmed at 37 degrees for at least 20 minutes before use. A […] stock was initially made in assay buffer, where the final concentration of DMSO was 0.3%. The stocks were then diluted in 384 well Optiplates (Packard) where the final concentration of the compound was […].
The kinase domain of human JAK3 was amplified from U937mRNA using the polymerase chain reaction with the following primers: […]
The JAK3 PCR products were cloned into the pDest20 destination expression vector (Gibco). The JAK3 plasmid was then transformed into competent DH10Bac cells (Gibco), and the recombinant baculovirus was prepared via Sf9 insect cell transfection.
Baculovirus preparations from each of the constructs were infected into either one or five liters of Sf9 cells (Invitrogen) grown in SF-900 medium (Invitrogen) to a cell density of approximately 1-2×10^6 cells/ml. Cells were infected with virus at a MOI of 0.8-3.0. Cells were harvested and lysed. Tyrosine kinase domains were purified by affinity chromatography on a glutathione-agarose column (Scientifix Pty. Ltd. catalog #: GSH-200).
Kinase assays were performed in 384 well Optiplates (Packard) using an Alphascreen Protein Tyrosine Kinase PY100 detection kit The compounds were pre-incubated with affinity purified PTK domain in the presence of phosphotyrosine assay buffer (10 mM HEPES, pH 7.5, 100 mM MgCl2, 25 mM NaCl, […] and 0.1% Tween 20) for 20 minutes. The compounds were then incubated with substrate in the presence of ATP. The substrate used was susbtrate-1 with the sequence biotin-EGPWLEEEEEAYGWMDF-NH2 [SEQ. ID. NO. 13] (final concentration […]). For HCK 80 μm ATP was used and incubated for 60 minutes. Alphascreen phosphotyrosine acceptor beads followed by streptavidin donor beads at a concentration of 1/100 in stop buffer were added to each well under subdued light and incubated for 2-3 hours., The Alphascreen plates were read on a Packard Fusion Alpha instrument.

BaF3 wild-type cells = experiment: Cellular screening, BaF3 wild-type cells, Alamar Blue; format: cell-based; conditions: Mus musculus, 40 hr, read-out: BAF3wt IC50_nM
Experimental: For screening purposes, compounds were diluted in 96 well plates at a concentration of 20 μM. Plates were warmed at 37° C. for 30 minutes before the assay was performed.
The growth factor dependant myelomonocytic cell line BaF3 bearing the pTET-off plasmid (Clontech) was transfected with either pTELJAK2 or pTELJAK3, and the transfected cells were selected for growth-factor independent cell growth. The BaF3 wild-type cells were cultured in DMEM containing 10% FCS, 10% WEHI 3B conditioned medium. The BaF3 TELJAK cells ([…]) were cultured in DMEM 10% Tet-System Approved FBS (without WEHI 3B conditioned medium).
Cell suspensions were prepared by harvesting cells from culture (the cells used in this test were in late log phase growth with high viability.) Cells were diluted in the appropriate growth medium, as described above, to 1.1× final concentration (from 50,000 cell/mL to 200,000 cell/mL, depending on cell line).
Compounds to be tested were added (10 μL, 10× final concentration) to a flat bottomed 96-well plate. The cellular suspension (90 μL per well) was then added, and the plate incubated for 40 hr at 37° C., 5% CO2. Alamar Blue 10 μL per well was added and the plates returned to the incubator for a further 4-6 hours. The plates were then read at 544 nm.

SMILES: Cc1cc(Sc2nc(Nc3ccc(N4CCOCC4)cc3)ncc2C)ccc1N [Compound 255, 4-(4-ao-3-methylphenylthio)-5-methyl-N-(4-morpholinophenyl)pyrimidin-2-ae]
- IC50 (human JAK3): < 500 nM
- IC50 (BaF3 wild-type cells): < 20000 nM

SMILES: C=CC(=O)Nc1ccc(Sc2nc(Nc3ccc(N4CCOCC4)nc3)ncc2C)cc1 [Compound 254, N-(4-(5-methyl-2-(6-morpholinopyridin-3-ylao)pyrimidin-4-ylthio)phenyl)acrylamide]
- IC50 (human JAK3): < 100 nM
- IC50 (BaF3 wild-type cells): < 5000 nM

SMILES: C=CC(=O)Nc1ccc(Sc2nc(Nc3ccc(N4CCOCC4)cc3)ncc2F)cc1 [Compound 268, N-(4-(5-fluoro-2-(4-morpholinophenylao)pyrimidin-4-ylthio)phenyl)acrylamide]
- IC50 (human JAK3): < 100 nM
- IC50 (BaF3 wild-type cells): > 20000 nM

SMILES: Cc1cnc(Nc2ccc(O)cc2)nc1Sc1ccc(NC(=O)CCl)cc1 [Compound 193, 2-chloro-N-(4-(2-(4-hydroxyphenylao)-5-methylpyrimidin-4-ylthio)phenyl)acetamide]
- IC50 (human JAK3): < 100 nM
- IC50 (BaF3 wild-type cells): < 5000 nM

SMILES: C=CC(=O)Nc1ccc(Sc2nc(Nc3ccc(N4CCCC(O)C4)cc3)ncc2C)cc1 (stereo not drawn) [Compound 299, N-(4-(2-(4-(3-hydroxypiperidin-1-yl)phenylao)-5-methylpyrimidin-4-ylthio)phenyl)acrylamide]
- IC50 (human JAK3): < 100 nM
- IC50 (BaF3 wild-type cells): < 20000 nM

SMILES: C=CC(=O)Nc1cccc(Nc2nccc(Sc3ccccn3)n2)c1 [Compound 2, N-(3-(4-(pyridin-2-ylthio)pyrimidin-2-ylamino)phenyl)acrylamide]
- IC50 (human JAK3): < 100 nM
- IC50 (BaF3 wild-type cells): < 5000 nM

SMILES: C=CC(=O)Nc1ccc(Sc2nc(Nc3ccc(N4CCOCC4)cc3)ncc2C)cc1C [Compound 259]
- IC50 (human JAK3): < 100 nM
- IC50 (BaF3 wild-type cells): < 20000 nM

SMILES: C=CC(=O)N(C)c1ccc(Sc2nc(Nc3ccc(N4CCOCC4)cc3)ncc2Br)cc1 [Compound 261, N-(4-(5-bromo-2-(4-morpholinophenylao)pyrimidin-4-ylthio)phenyl)-N-methylacrylamide]
- IC50 (human JAK3): < 100 nM
- IC50 (BaF3 wild-type cells): > 20000 nM

SMILES: CC#CC(=O)Nc1cccc(Nc2nccc(SC)n2)c1 [Compound 8, N-(3-(4-(methylthio)pyrimidin-2-ylao)phenyl)but-2-ynamide]
- IC50 (human JAK3): < 100 nM
- IC50 (BaF3 wild-type cells): < 20000 nM

SMILES: C=CC(=O)Nc1ccc(Sc2nc(Nc3ccc(N4CCOCC4)cc3)ncc2Br)cc1 [Compound 306, N-(4-(5-bromo-2-(4-morpholinophenylao)pyrimidin-4-ylthio)phenyl)acrylamide]
- IC50 (human JAK3): < 100 nM
- IC50 (BaF3 wild-type cells): > 20000 nM

SMILES: OCc1cccc(Sc2ccnc(Nc3ccc(N4CCOCC4)cc3)n2)c1 [Compound 62, (3-(2-(4-Morpholinophenylamino)pyrimidin-4-ylthio)phenyl)methanol]
- IC50 (human JAK3): < 500 nM
- IC50 (BaF3 wild-type cells): < 20000 nM

SMILES: O=C(/C=C\Cl)Nc1ccc(Sc2ccnc(Nc3ccc(N4CCOCC4)cc3)n2)cc1 [Compound 346, (Z)-3-chloro-N-(4-(2-(4-morpholinophenylao)pyrimidin-4-ylthio)phenyl)acrylamide]
- IC50 (human JAK3): < 100 nM
- IC50 (BaF3 wild-type cells): < 1000 nM

SMILES: Cc1cnc(Nc2cccc(O)c2)nc1Sc1ccc(NC(=O)CCl)cc1 [Compound 194, 2-chloro-N-(4-(2-(3-hydroxyphenylao)-5-methylpyrimidin-4-ylthio)phenyl)acetamide]
- IC50 (human JAK3): < 100 nM
- IC50 (BaF3 wild-type cells): < 5000 nM

SMILES: C=CC(=O)Nc1ccc(Sc2ccnc(Nc3cccc(CO)c3)n2)cc1 [Compound 278, N-(4-(2-(3-(hydroxymethyl)phenylao)pyrimidin-4-ylthio)phenyl)acrylamide]
- IC50 (human JAK3): < 100 nM

SMILES: C=CC(=O)Nc1ccc(Sc2nc(Nc3ccc(N4CCC(O)C4)cc3)ncc2C)cc1 (stereo not drawn) [Compound 295, N-(4-(2-(4-(3-hydroxypyrrolidin-1-yl)phenylao)-5-methylpyrimidin-4-ylthio)phenyl)acrylamide]
- IC50 (human JAK3): < 100 nM
- IC50 (BaF3 wild-type cells): > 20000 nM

SMILES: Cc1cnc(Nc2ccc(N3CCOCC3)cc2)nc1Sc1ccc(N2C(=O)C=C(Br)C2=O)cc1 [Compound 382, 3-bromo-1-(4-(5-methyl-2-(4-morpholinophenylao)pyrimidin-4-ylthio)phenyl)-1H-pyrrole-2,5-dione]
- IC50 (human JAK3): < 100 nM
- IC50 (BaF3 wild-type cells): < 20000 nM

SMILES: C=CC(=O)Nc1ccc(Sc2nc(Nc3ccc(N4CCN(C)CC4)c(OC)c3)ncc2C)cc1 [Compound 249, N-(4-(2-(3-methoxy-4-(4-methylpiperazin-1-yl)phenylao)-5-methylpyrimidin-4-ylthio)phenyl)acrylamide]
- IC50 (human JAK3): < 100 nM
- IC50 (BaF3 wild-type cells): < 5000 nM

SMILES: Cc1cnc(Nc2ccc(N3CCOCC3)cc2)nc1Sc1ccc(N)cc1Cl [Compound 251, 4-(4-ao-2-chlorophenylthio)-5-methyl-N-(4-morpholinophenyl)pyrimidin-2-ae]
- IC50 (human JAK3): < 100 nM
- IC50 (BaF3 wild-type cells): > 20000 nM

SMILES: CC#CC(=O)Nc1cccc(Sc2ccnc(Nc3cccc(N4CCOCC4)c3)n2)c1 [Compound 232, N-(3-(2-(3-morpholinophenylao)pyrimidin-4-ylthio)phenyl)but-2-ynamide]
- IC50 (human JAK3): < 100 nM

SMILES: Cc1cnc(Nc2ccc(N3CCOCC3)cc2)nc1Sc1ccc(NC(=O)/C=C\C(=O)O)cc1 [Compound 380, (Z)-4-(4-(5-methyl-2-(4-morpholinophenylao)pyrimidin-4-ylthio)phenylao)-4-oxobut-2-enoic acid]
- IC50 (human JAK3): < 100 nM
- IC50 (BaF3 wild-type cells): > 20000 nM

SMILES: C=CC(=O)Nc1ccc(Sc2ccnc(Nc3ccc(O)cc3)n2)cc1 [Compound 276, N-(4-(2-(4-hydroxyphenylao)pyrimidin-4-ylthio)phenyl)acrylamide]
- IC50 (human JAK3): < 100 nM
- IC50 (BaF3 wild-type cells): < 20000 nM

SMILES: C=CC(=O)Nc1cccc(Nc2nccc(Sc3ccccc3)n2)c1 [Compound 16, N-(3-(4-(phenylthio)pyrimidin-2-ylamino)phenyl)acrylamide]
- IC50 (human JAK3): < 100 nM
- IC50 (BaF3 wild-type cells): < 20000 nM

SMILES: N#CCC(=O)Nc1cccc(Sc2ccnc(Nc3ccc(N4CCOCC4)cc3)n2)c1 [Compound 24, N-(3-(2-(4-morpholinophenylamino)pyrimidin-4-ylthio)phenyl)-2-cyanoacetamide]
- IC50 (BaF3 wild-type cells): < 20000 nM

SMILES: C=CC(=O)Nc1ccc(Sc2nc(Nc3cccc(N4CCOCC4)c3)ncc2I)cc1 [Compound 269, N-(4-(5-iodo-2-(3-morpholinophenylao)pyrimidin-4-ylthio)phenyl)acrylamide]
- IC50 (human JAK3): < 100 nM

SMILES: C=CC(=O)Nc1ccc(Sc2nc(Nc3ccc(N4CCC(CO)CC4)cc3)ncc2Br)cc1 [Compound 253, N-(4-(5-bromo-2-(4-(4-(hydroxymethyl)piperidin-1-yl)phenylao)pyrimidin-4-ylthio)phenyl)acrylamide]
- IC50 (human JAK3): < 100 nM
- IC50 (BaF3 wild-type cells): > 20000 nM

SMILES: CCOC(=O)/C=C/C(=O)Nc1ccc(Sc2nc(Nc3ccc(N4CCOCC4)cc3)ncc2C)cc1 [Compound 385, (E)-ethyl 4-(4-(5-methyl-2-(4-morpholinophenylao)pyrimidin-4-ylthio)phenylao)-4-oxobut-2-enoate]
- IC50 (human JAK3): < 100 nM
- IC50 (BaF3 wild-type cells): > 20000 nM

SMILES: Cc1cnc(Nc2ccc(N3CCN(C)CC3)cc2)nc1Sc1ccc(N)cc1 [Compound 244, 4-(4-aophenylthio)-5-methyl-N-(4-(4-methylpiperazin-1-yl)phenyl)pyrimidin-2-ae]
- IC50 (human JAK3): < 100 nM
- IC50 (BaF3 wild-type cells): < 5000 nM

SMILES: C=CC(=O)Nc1ccc(Sc2nc(Nc3ccc(C)c(Br)c3)ncc2C)cc1 [Compound 242, N-(4-(2-(3-bromo-4-methylphenylao)-5-methylpyrimidin-4-ylthio)phenyl)acrylamide]
- IC50 (human JAK3): < 500 nM
- IC50 (BaF3 wild-type cells): > 20000 nM

SMILES: C=CC(=O)Nc1ccc(Sc2ccnc(Nc3cccc(O)c3)n2)cc1 [Compound 277, N-(4-(2-(3-hydroxyphenylao)pyrimidin-4-ylthio)phenyl)acrylamide]
- IC50 (human JAK3): < 100 nM
- IC50 (BaF3 wild-type cells): > 20000 nM
